Reference: patent US20240390404A1, “ANTI-HUMAN NOROVIRUS AGENT” (KEIO UNIVERSITY, priority 2018, published 2024)

Key:
[1] = test system: human norovirus GII. 4 strain or GII. 6 strain; assay: Effect of treatment with 2fp-fucose or 6a-fucose after differentiation, on infection and reinfection (RNA titer by real-time RT-PCR); assay type: cell-based; details: fucose analog 200 μM added on day 5, infection on day (5+2), 3 days culturing
Experimental: (a) The 2D organoid was disseminated to a 96-well plate. After completion of differentiation induction, two fucose analogs (i.e., 2fp-fucose and 6a-fucose) were each added on day 5 to a concentration of 200 μM, to thereby provide addition groups. The results are shown in FIG. 14(a) and FIG. 14(b), respectively. A non-addition group (untreated group) was also provided. Subsequently, the medium was removed from the wells on day (5+2), and the plate was washed. Then, infection with the GII. 4 strain or the GII. 6 strain was performed.
After the infection treatment, the human norovirus remaining in the medium was removed together with the medium, and the plate was washed thrice with a new medium. After washing, the aforementioned active ingredients were each added to the new medium to a concentration of 200 μM (addition groups), and no addition was performed with respect to the untreated (i.e., non-addition) group. Culturing was performed for 3 days. A portion (10 μL) of the medium was sampled from each well, and the samples were centrifuged at 10,000 g for 10 minutes, to thereby remove cell precipitates. The amount of human norovirus genomic RNA in the supernatant (1 μL) was determined through real-time RT-PCR.
In the test system, the effect of the anti-norovirus agent of the present invention provided after human norovirus infection was estimated on the basis of the following study. Specifically, among the fucose analog-treated 2D organoid cells, the living cells on growth day 3 (i.e., most of them were not infected with human norovirus, by virtue of the effect of the fucose analog) were subjected to a secondary infection operation (i.e., reinfection). The effect of the fucose analog on the reinfection was investigated.
In a specific procedure, the addition groups were prepared through the same procedure as employed in (a) above. The primarily infected cells were cultured in the presence of the fucose analog (200 μM) for 3 days, and the medium was removed from each culture system. After completion of washing, the cells were infected again with human norovirus, and then the virus was removed together with the medium. After completion of the next washing, a medium containing the fucose analog (200 μM) (represented by Reinf+2f-fuc or Reinf+6a-fuc), or a fucose analog-free medium (represented by Reinf−2f-fuc or Reinf−6a-fuc) was added thereto, and culturing was performed for further 3 days. Similar to the above case, the amount of human norovirus released to the supernatant was determined as an RNA titer. In the graphs, the two bars on the right side correspond to (Reinf+2f-fuc and Reinf+6a-fuc) or (Reinf−2f-fuc and Reinf−6a-fuc).

[2] = test system: human norovirus GII. 6 strain; assay: Human norovirus proliferation inhibition test by use of 6a-fucose (real-time RT-PCR of genomic RNA), GII.6 strain; assay type: cell-based
Experimental: (§1) To a medium containing the 2D organoid, 6a-fucose was added so as to adjust a final concentration of 0 μM, 1.6 μM, 8 μM, 40 μM, and 200 μM, and culturing for differentiation induction was performed for 4 days. The culturing was performed by means of a 96-well plate in which 3 wells were dedicated for each 6a-fucose addition system, and one test plate was used for one human norovirus tested. The human norovirus tested included the GII.4 strain and GII. 6 strain. The culturing was performed in a CO2 gas incubator controlled at 37° C.
(§2) On day 4 of culturing, the medium was removed, and the plate was washed with a new medium. Subsequently, each human norovirus was added at 10^5 RNA copies to the plate for infection, and static culturing was performed for 3 hours. After completion of the infection treatment, human norovirus remaining in the medium was removed together with the medium, and the plate was washed thrice with a new medium.
(§3) After washing, 6a-fucose was added again to the new medium so as to adjust a final concentration to 0 μM, 1.6 μM, 8 μM, 40 μM, and 200 μM, and culturing was performed for 6 days.
(§4) A portion (10 μL) of the culture medium was collected from each well at three timings: (a) immediately after the addition to the new medium, (b) on day 3, and (c) on day 6. The sample was centrifuged at 10,000 g for 10 minutes, and the cell precipitate was removed. The human norovirus genomic RNA contained in the supernatant (1 μL) was quantitated through real-time RT-PCR.
(§5) In FIG. 13, the effects of use of 6a-fucose are shown with respect to (a) human norovirus GII. 4 strain and (b) human norovirus GII. 6 strain. The vertical axis in FIG. 13 represents the copy number of human norovirus genomic RNA (RNA titer), and the numeral under each bar graph represents the time of culturing from the start of the test.

[3] = test system: human norovirus GII. 4 strain; assay: Human norovirus proliferation inhibition test by use of 6a-fucose (real-time RT-PCR of genomic RNA), GII.4 strain; assay type: cell-based
Experimental: as §1, §2, §3, §4, §5

[4] = test system: 2D organoid; assay: Cytotoxicity of 6a-fucose to cultured 2D organoid (mono-layer sheet still alive); assay type: cell-based, human; details: 6a-fucose 1.6 to 200 μM, any of the tested concentrations
Experimental: as §1

[5] = test system: human norovirus GII.4 (K2017 strain); assay: Human norovirus proliferation inhibition in 2D organoid after agent pre-treatment, GII.4 strain; assay type: cell-based; details: GII.4, 3 days treatment before infection
Experimental: Feces of a human norovirus-infected patent contains a large amount of infectious human norovirus. Thus, the feces of a human norovirus-infected patient is suspended in distilled water or the like to a final concentration of about 10%, to thereby prepare a “10% feces suspension.” The 10% feces suspension is about 10-fold diluted with an ENRA medium. The diluted suspension is added to each of the aforementioned wells having the 2D organoid (5 μL/well) and subjected to incubation for about 3 hours, to thereby proliferate human norovirus. As a result of verification, it has been confirmed that human norovirus proliferates to about 100,000 times the initial count through the culture system employing the 2D organoid.
In the Example, there were tested strains of human norovirus obtained from feces of human norovirus infection patients through the aforementioned procedure and stocked before the test. Specifically, three strains belonging to the genetic group 2 (GII) which accounts for 80 to 90% of the infected patients were selected as test targets. The isolated strain lineages included in GII (FIG. 1) were GII. 6 belonging to “Lineage 1,” GII. 3 belonging to “Lineage 2,” and GII.4 belonging to “Lineage 3” (GII. 6: K2017 strain, GII.3: TCH2004 strain, and GII. 4: K2017 strain).
The effect of 2fp-fucose treatment on proliferation of human norovirus was investigated for each lineage of norovirus. Specifically, after the 2fp-fucose treatment for 3 days, the 2D organoid was infected with each of the aforementioned norovirus strains GII.6, GII. 3, and GII. 4, and the viral proliferation amount was determined on days 3 and 6 after infection (FIG. 4).
Next, there was investigated the effect of the period of time (the number of days) of the 2fp-fucose treatment performed in advance on the anti-human norovirus action of the fucose analog. Specifically, the strain GII. 4 was treated with 2fp-fucose (several concentrations) for 1 to 4 days. […] However, in the group of 3-day treatment, the proliferation inhibition effect was observed by the 200 μM treatment with a certain range of variation in effectiveness. In the group of 4-day treatment, the proliferation inhibition effect was initially observed by 8 μM treatment, and the effect increased in a concentration-dependent manner to a 2fp-fucose concentration of 200 μM. […] Thus, the highest proliferation inhibition effect was obtained in the 2D organoid system through a 200 μM treatment for 3 to 4 days. The test was repeatedly performed three times. Error bars denote SEMs.
The 2D organoid was treated with an agent for 3 days. The tested agents were (a) 2fp-fucose (200 μM), (b) Sofosbuvir (1 μM), (c) Lamivudine (1 μM), (d) Ribavirin (400 μM), and (e) Mizoribine (100 μM). Subsequently, the thus-treated 2D organoid was infected with human norovirus (the norovirus strain GII.4), and the proliferation inhibition effect was determined (FIG. 6). The test was repeatedly performed three times. Error bars denote SEMs.

Question: Which “rise in RNA titer (proliferation of human norovirus) in the addition group” value [1] does the source give for `C#C[C@@H]1OC(OC(C)=O)[C@@H](OC(C)=O)[C@H](OC(C)=O)[C@@H]1OC(C)=O` (stereo partly drawn) [6a-fucose, 1,2,3,4-tetra-O-acetyl-6,7-dideoxy-L-galacto-hept-6-ynopyranose] here?
Answer: The value was “no rise in RNA titer”.

Question: And the “rise in RNA titer of the untreated group with respect to the administration system” value [1]?
Answer: Its value is at least 150 fold.

Question: What about the proliferation inhibition effect ([2]; 6a-fucose 1.6 μM) of the same molecule?
Answer: The proliferation inhibition effect was “not recognized”.

Question: What about the “human norovirus genome proliferation” value ([2]; 6a-fucose 8 μM, culture days 3 and 6) of the same molecule?
Answer: The value was “actively suppressed”.

Question: And the “human norovirus genome proliferation” value ([2]; 6a-fucose 40 μM)?
Answer: The value was “completely inhibited”.

Question: What about the “rise in RNA titer relative to the titer at the start of culturing” value ([3]; 6a-fucose 8 μM) of the same molecule?
Answer: Its value is “about 10 times”.

Question: What about the “rise in RNA titer” value ([3]; 6a-fucose 40 μM, day 6) of the same molecule?
Answer: The value was “no substantial increase in RNA titer was observed”.

Question: And the “rise in RNA titer” value ([3]; 6a-fucose 200 μM)?
Answer: Its value is “completely inhibited”.

Question: What about the “6a-fucose concentration at which the proliferation inhibition effect emerged” value ([3]; 4 days pre-treatment, 6 days culturing after infection) of the same molecule?
Answer: The value was 1.6 µM.

Question: What about the “RNA titer relative to the titer at the start of culturing” value ([3]; each 6a-fucose treatment group (any concentration), culture day 6) of the same molecule?
Answer: Its value is at most 100 times.

Question: What about the “cytotoxicity to cultured cells (2D organoid)” value [4] of the same molecule?
Answer: The value was “no cytotoxicity attributed to addition of 6a-fucose was observed”.

Question: For `NC(=O)c1ncn([C@@H]2O[C@H](CO)[C@@H](O)[C@H]2O)c1O` [Mizoribine, reference compound], which “viral RNA titer from day 0 to day 7 (proliferation inhibition effect)” value ([5]; agent 100 μM) is on record?
Answer: Its value is “no effect of inhibiting proliferation of human norovirus”.

Question: Which “viral RNA titer from day 0 to day 7 (proliferation inhibition effect)” value ([5]; agent 400 μM) does the source give for `NC(=O)c1ncn([C@@H]2O[C@H](CO)[C@@H](O)[C@H]2O)n1` [Ribavirin, reference compound] here?
Answer: The value was “no effect of inhibiting proliferation of human norovirus”.

Question: `CC(C)OC(=O)[C@H](C)N[P@](=O)(OC[C@H]1O[C@@H](n2ccc(=O)[nH]c2=O)[C@](C)(F)[C@@H]1O)Oc1ccccc1` [Sofosbuvir, reference compound] was tested. Which “viral RNA titer from day 0 to day 7 (proliferation inhibition effect)” value ([5]; agent 1 μM) did it give?
Answer: Its value is “no effect of inhibiting proliferation of human norovirus”.
